Here are results for one molecule from US20190144368A1, “Compounds and compositions for biofilm prevention” (INHIBIO AS, priority 2016, published 2019).

Test [1] relates to Gram negative bacteria (Salmonella isolates). Nature of the test: Biofilm formation in polystyrene microtiter plates (crystal violet, OD595), Gram negative bacteria. In kind it is cell-based, Salmonella ser. Typhimurium, Salmonella ser. Agona. The note with it: two days at 20 °C. As to the method:
(§1) All experiments were performed by using sterile 96-wells polystyrene microtiter plates (Nunc, Nuncleon, Roskilde, Denmark) under conditions promoting biofilm formation by the different bacterial genera. The Inhibio compound preparations of the invention; 1,3-cyclohexanedione, 1,4-cyclohexanedione, cyclopentanone, 5-ethylcyclohexane-1,3-dione and 5-methyl-1,3 cyclohexanedione 98% were solved directly in Tryptic Soy Broth (TSB) 1+1 or Liquid Microbiology Broth (LB) broth without NaCl (LB^wo/NaCl) to obtain the test concentrations, i.e. from 1 mg/ml to 10 mg/ml.
One Salmonella ser. Typhimurium (S. Typhimurium), two Salmonella ser. Agona (S. Agona) and two Escherichia coli (E. coli) isolates were used in these studies. The studies performed using 1,3-cyclohexanedione and 1,4-cyclohexanedione were done on Salmonella isolates only. The studies comparing Menthone to 1,3-cyclohexanedione were using two E. coli strains, E. coli 1242 and E. coli 1153, see FIG. 11. The Salmonella isolates were isolated from Norwegian feed factories except one S. Typhimurium strain which was a culture collection strain (ATCC 14028). The E. coli isolates were of animal origin. All strains were stored at −80° C. in BHI supplemented with 15% glycerine and were recovered on blood agar at 37.0±1.0° C. The bacterial cultures were then transferred into LB broth and incubated statically overnight at 37.0±1.0° C. to obtain an overnight working culture. A total of 30 μl of this suspension was transferred to each well in 96 wells polystyrene microtiter plates (Nunc, Nuncleon, Roskilde, Denmark) in triplets. The wells were containing 100 μl LB^wo/NaCl (bacto-tryptone 10 g/l, yeast extract 5 g/l) with 1,3-cyclohexanedione dissolved in concentration 0 mg/ml, 1 mg/ml and 10 mg/ml in the total amount of broth and 1,4-cyclohexanedione and cyclopentanone at 0 mg/ml and 10 mg/ml. The microtiter plates were incubated statically for two days, at 20±1.0° C. After incubation, OD595 was measured before the plates were gently washed one time with 150 μl tap water. The plates were dried in room temperature before addition of 140 μl 1% crystal violet (Sigma-Aldrich). After 30 minutes incubation in room temperature, the plates were washed three times with tap water before addition of 140 μl ethanol:acetone (70:30 w:w) and incubated for another 10 minutes in room temperature. OD595 was measured in a microplate photometer (Multiscan EX) after the bound dye was dissolved using ethanol:acetone. For each strain, the result was calculated by subtracting the median OD595 of the three parallels of the control (test broth only) from the median OD595 of the three parallels of sample. Further, the averages of the Gram negative strains were calculated. Three independent experiments were performed and the average was evaluated.

The subject of test [2] is Listeria monocytogenes (six strains). Description: Biofilm formation in microtiter plates, Listeria. The class given is cell-based. Particulars: 24 hours at 35 °C. As to the method: Six strains of Listeria monocytogenes were used in this study isolated from food research. The strains were recovered in 200 μl TSB broth in a microtiter plate and incubated at 37° C. for 24 hours. A total of 5 μl of the bacterial suspension was transferred to a 96 wells polystyrene microtiter plate (Thermo scientific Nucleon Delta surface) together with 200 μl medium (LB^wo/NaCl) with 1,3-cyclohexanedione (dissolved to 0,625 mg/ml, 2.5 mg/ml, 5 mg/ml and 10 mg/ml) to each well. Each strain was added in duplex and incubated at 35° C. for 24 hours. After incubation, OD595 was measured before the plates were gently washed one time with 200 μl tap water. This was repeated once. The plates were dried in room temperature before addition of 200 μl 0, 1% crystal violet (Sigma-Aldrich). After 30 minutes incubation in room temperature, the plates were washed twice with 200 μl tap water and once with 240 μl. This was followed by the addition of 200 μl ethanol:acetone (70:30 w:w) and incubated for another 10 minutes in room temperature. OD595 was measured in a microplate photometer (Multiscan EX) after the bound dye was dissolved using ethanol:acetone. For each strain, the result was calculated by subtracting the average OD595 of the two parallels of the control (test broth only) from the average OD595 of the two parallels of sample. Three independent experiments were performed. The average of the 6 strains as well as the average between the experiments was calculated.

Test [3] relates to Gram positive bacteria (three Staphylococcus aureus strains). Nature of the test: Biofilm formation in polystyrene microtiter plates (crystal violet, OD595), Gram positive bacteria. In kind it is cell-based. Particulars: one day at 37 °C. As to the method:
as §1
Three Staphylococcus aureus strains of animal origin were used in this study. All strains were stored at −80° C. in Brain Heart Infusion Broth (BHI) (Difco, BD, Franklin Lakes, N.J., USA) supplemented with 15% glycerine (Merck KGaA, Darmstadt, Germany) and were recovered on blood agar at 37.0±1.0° C. The bacterial cultures were then transferred into TSB and were incubated statically overnight at 37.0±1.0° C. to obtain an overnight working culture. A total of 2 μl of this suspension was transferred to each 96 wells of polystyrene microtiter plates (Nunc, Nuncleon, Roskilde, Denmark) containing 198 μl TSB 1+1 with dissolved Inhibio compounds in the following concentrations: 0 mg/ml, 1 mg/ml and 10 mg/ml for 1,3-cyclohexanedione; 0 mg/ml and 10 mg/ml for 1,4-cyclohexanedione; and 0 mg/ml, 1 mg/ml, 2 mg/ml and 10 mg/ml for 5-ethylcyclohexane-1,3-dione and 5-Methyl-1,3-cyclohexanedione in the total amount of broth. Three parallels of each strain were used and the microtiter plates were incubated statically for one day, at 37±1.0° C. After incubation, OD595 was measured in a microplate photometer (Multiscan EX; Thermo Fisher Scientific Inc, Waltham, Mass., USA) before the plates were gently washed three times with 290 μl tap water. The plates were dried in room temperature before addition of 220 μl 1% crystal violet (Sigma-Aldrich, St. Louis, Mo., USA). After 30 minutes incubation in room temperature, the plates were washed three times with tap water before the addition of 220 μl ethanol:acetone (70:30 w:w) to dissolve the bound dye. The plates were incubated for 10 minutes in room temperature before OD595 was measured after the bound dye was dissolved using ethanol:acetone. For each strain, the result was calculated by subtracting the median OD595 of the three parallels of the control (test broth only) from the median OD595 of the three parallels of sample. Further, the average result of all three Gram positive strains included in the study were calculated. Three independent experiments were performed and the average was evaluated.

For `O=C1CCCC(=O)C1` [1,3-cyclohexanedione], the “decrease in biofilm formation, percentage of the control” value amounted to 70% in test [1] (1 mg/ml), 87% in test [1] (10 mg/ml), 74% in test [3] (1 mg/ml) and 98% in test [3] (10 mg/ml). The “decrease in biofilm formation in percentage of the control” value in test [2] (0.625 mg/ml) is recorded as 27%; in test [2] (2.5 mg/ml), 40%; in test [2] (5 mg/ml), 53%; in test [2] (10 mg/ml), 70%.
